{
  "source": "patent US20100222410A1",
  "about": "“Nuclease compositions and methods” (Massachusetts Institute of Technology, priority 2008, published 2010)",
  "key": {"folA mRNA": {"system": "folA mRNA", "assay": "In vitro cleavage assay, defined mRNA as substrate", "type": "biochemical", "procedure": "(§1) In vitro cleavage assays. All YbeY RNase assays were carried out in 50 mM HEPES pH 7.5 in a 20 μl final volume and used 0.2 μg of purified YbeY or 8.0 μg of MBP-YbeY. For assays using total rRNA or folA mRNA as substrate, 800 ng of total E. coli rRNA or synthesized folA mRNA was incubated with YbeY or MBP-YbeY for 30′ at 37° C., separated on an agarose/synergel mix gel and stained with ethidium bromide. Where indicated EDTA was added to 50 mM and MgSO4 was added to 5 mM. For assays using ΔybeY mutant 70S ribosomes as substrate, 800 ng of ΔybeY mutant 70S ribosomes was incubated with YbeY for the indicated time at 37° C., separated on an agarose/synergel mix gel and stained with ethidium bromide. For each reaction, 200 pmol of short RNA substrate was incubated with YbeY or MBP-YbeY for the indicated time at 37° C. Products were separated on denaturing PAGE. The ladder used for each substrate was made by alkaline hydrolysis of the respective substrate. A synthesized short rRNA of defined length was used as a reference for numerating the ladder."}, "[1]": {"system": "short, sequence-defined, RNA substrates", "assay": "In vitro cleavage assay, short sequence-defined RNA substrates", "type": "biochemical", "details": "for position of major cleavage product from the beginning of the duplex: partially dsRNA substrate with ssRNA 3′ terminus", "procedure": "as §1"}, "[2]": {"system": "purified 70S ribosomes isolated from the ΔybeY mutant", "assay": "In vitro cleavage assay, 70S ribosomes as substrate", "type": "biochemical, E. coli", "details": "over time, absence of Mg^2+", "procedure": "as §1"}, "[3]": {"system": "double stranded or single stranded DNA", "assay": "YbeY activity on DNA", "type": "biochemical", "details": "in vitro"}, "[4]": {"system": "16S rRNA 3′ terminus mimic", "assay": "YbeY activity on 16S rRNA 3′ terminus mimics", "type": "biochemical, E. coli", "procedure": "as §1"}, "total E. coli rRNA": {"system": "total E. coli rRNA", "assay": "In vitro cleavage assay, total rRNA as substrate", "type": "biochemical", "details": "MBP-YbeY at four times the molar concentration of YbeY", "procedure": "as §1"}, "E. coli": {"system": "E. coli", "assay": "17S rRNA accumulation after treatment of E. coli (total rRNA analysis)", "type": "cell-based", "procedure": "Polysome and rRNA analysis. Polysome profiles were obtained as described previously. rRNA was extracted from logarithmically growing cultures or separated ribosome fractions using Qiagen RNeasy Mini Kit. 16S and 23 rRNA were separated using Synergel/Agarose gel electrophoresis as described previously. […] The site-specific RNase H cleavage assay was performed as described previously followed by Northern hybridization using primers specific for the mature 3′termini of 16S, 23S, and 5S, respectively. 100 ng of total MC4100 or mutant RNA were used for each assay. All reactions were separated on denaturing polyacrylamide gels."}, "YbeY": {"target": "T1, YbeY (Escherichia coli, UniProt P0A898)", "T1 construct": "His (N, cleaved yes); MBP (N, cleaved yes); made in house; host or cells: E. coli, pET28A vector, IPTG induction", "T1 sequence (P0A898 whole entry)": "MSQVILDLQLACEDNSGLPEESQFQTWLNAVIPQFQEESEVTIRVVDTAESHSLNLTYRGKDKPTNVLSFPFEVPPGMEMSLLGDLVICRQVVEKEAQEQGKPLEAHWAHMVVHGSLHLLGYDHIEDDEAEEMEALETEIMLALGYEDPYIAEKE", "assay": "Inhibition of YbeY RNase activity in the in vitro cleavage assay (total rRNA substrate)", "type": "biochemical, E. coli", "procedure": "as §1"}, "[5]": {"details": "partially duplexed RNA substrate with 5′ ssRNA terminus, FIG. 3G"}},
  "data": [
    {"compound": "YbeY: E. coli UPF0054 family member, purified as MBP fusion, MBP removed by TEV protease cleavage; C-terminal FLAG tag", "values": [
      {"measurement": "degradation of a defined mRNA", "setting": "folA mRNA", "result": "can also degrade"},
      {"measurement": "cleavage of single-stranded RNA (ssRNA) substrate, short sequence of 16S rRNA", "setting": "[1]; FIG. 3C", "result": "cleaved"},
      {"measurement": "cleavage of a perfect RNA duplex", "setting": "[1]; FIG. 3D", "result": "unable to cleave"},
      {"measurement": "cleavage of hairpin substrate within the loop", "setting": "[1]; hairpin with perfectly paired blunt terminus, FIG. 3H", "result": "efficiently cleaved"},
      {"measurement": "position of major cleavage product from the beginning of the duplex", "setting": "[1]; FIG. 3E", "result": "+1 bases"},
      {"measurement": "position of major cleavage product from the beginning of the duplex", "setting": "[1]; FIG. 3F", "result": "+2 bases"},
      {"measurement": "cleavage inside the duplex", "setting": "[1]; [5]", "result": "no cleavage events were observed"},
      {"measurement": "position of major cleavage product from the duplexed end", "setting": "[1]; [5]", "result": "+2 bases"},
      {"measurement": "position of the major YbeY cut", "setting": "[1]; third partially dsRNA substrate with free 3′ ssRNA terminus, different nucleotide sequence", "result": "flush with the dsRNA end"},
      {"measurement": "degradation of 70S ribosomes", "setting": "[2]", "result": "effectively degraded"},
      {"measurement": "degradation of double stranded or single stranded DNA", "setting": "[3]", "result": "did not degrade"},
      {"measurement": "cleavage of 50 nucleotide ssRNA 16S rRNA 3′ terminus mimic", "setting": "[4]; mimic alone, 4 μg of YbeY", "result": "cleaved this substrate to generate a mature 3′ terminus"},
      {"measurement": "cleavage at the maturation site", "setting": "[4]; mimic paired with a short mRNA, flap like structure", "result": "enhance YbeY cleavage at the maturation site"},
      {"measurement": "RNase activity against total E. coli rRNA", "setting": "total E. coli rRNA", "result": "can degrade total E. coli rRNA"}
    ]},
    {"compound": "OO", "note": "[hydrogen peroxide]", "values": [
      {"measurement": "accumulation of 17S rRNA", "setting": "E. coli", "result": "does not cause the accumulation of 17S"}
    ]},
    {"compound": "[Mg+2]", "note": "[Mg^+2, magnesium(II)]", "values": [
      {"measurement": "Mg^+2 concentration that inhibits YbeY's RNase activity", "setting": "YbeY; in vitro, MgSO4 added", "result": "≥ 5", "unit": "mM"}
    ]},
    {"compound": "gentamycin", "values": [
      {"measurement": "accumulation of 17S rRNA", "setting": "E. coli", "result": "induce the rapid accumulation of 17S rRNA"}
    ]},
    {"compound": "CC1(C)S[C@@H]2[C@H](NC(=O)[C@H](N)c3ccccc3)C(=O)N2[C@H]1C(=O)O", "note": "[ampicillan]", "values": [
      {"measurement": "accumulation of 17S rRNA", "setting": "E. coli", "result": "does not cause the accumulation of 17S"}
    ]},
    {"compound": "CN[C@@H]1[C@H](O)[C@H](NC)[C@H]2O[C@@]3(O)C(=O)C[C@@H](C)O[C@H]3O[C@@H]2[C@H]1O", "note": "[spectinomycin]", "values": [
      {"measurement": "accumulation of 17S rRNA", "setting": "E. coli", "result": "induce the rapid accumulation of 17S rRNA"}
    ]},
    {"compound": "O=C(O)CN(CCN(CC(=O)O)CC(=O)O)CC(=O)O", "note": "[EDTA, ethylenediaminetetraacetic acid]", "values": [
      {"measurement": "degradation of total rRNA by YbeY in presence of EDTA", "setting": "YbeY; EDTA added to 50 mM, 30′ at 37° C.", "result": "inhibited"}
    ]},
    {"compound": "O=C(N[C@H](CO)[C@H](O)c1ccc([N+](=O)[O-])cc1)C(Cl)Cl", "note": "[chloramphenicol]", "values": [
      {"measurement": "accumulation of 17S rRNA", "setting": "E. coli", "result": "induce the rapid accumulation of 17S rRNA"}
    ]}
  ]
}
